Data reported in US12378193B2, “Anti-arrhythmicity agents” (The Regents of the University of California, priority 2014, dated 2025).

Experiments:
[1] = system: Zebrafish embryo injected with morpholino to NCX1h; assay: Zebrafish screening: injection with morpholino to NCX1h; assay type: in vivo; details: for Injection with Morpholino: % Rescued: Table 1; for Rescue percent: Table 3, morpholino mutants
Method: (§1) We screened our above mention library by using tremblor mutants Zebrafish embryos. […] Compounds were screened for their ability to suppress cardiac fibrillation and/or restore rhythmic synchronized contraction. Briefly, we treated the embryo by soaking in 20 μM solution or injecting compounds after 24 hours fertilization and observed the phenotype after 48 hours. Further, we determined the structure-activity relationship (SAR) between the active compound's structures and the ability to suppress cardiac fibrillation and/or restore rhythmic synchronized contraction.
(§2) Zebrafish eggs were collected at 1 cell stages. 1 nL of compound in Daneu's buffer and 1 nL of morpholino (1 mM) to NCX1h was injected into the embryo. After 24 hours the embryo was arrayed in 24-well plates (20 twenty embryos/well) in 500 μL buffer. After 48 hour fertilization in 29° C., phenotypic changes were observed using a high magnification dissecting microscope.

[2] = system: Zebrafish tremblor mutant; assay: Zebrafish screening: injection into tremblor mutants; assay type: in vivo; details: for Injection into tremblor Mutants: % Rescued: Table 1; for Average rescue ratio: Table 4, over all screens
Method: as §1
as §2, with “Zebrafish tremblor mutant” for “Zebrafish”, “were” for “and 1 nL of morpholino (1 mM) to NCX1h was”

VDAC2 = assay: Affinity bead pull down from zebrafish embryo lysate with mass spectrometry; assay type: binding; details: zebrafish embryonic lysate, affinity agarose beads
Method: For pull down assays mono-N-Boc protected 2,2′-(ethylenedioxy)bis(ethylamine) was attached to the carboxylic ester of efsevin and its derivatives through the amide bond. After removal of the Boc group using TFA, the primary amine was coupled to the carboxylic acid of Affi-Gel 10 Gel (Biorad). Two-day-old zebrafish embryos were deyolked by centrifugation before being lysed with Rubinfeld's lysis buffer (Rubinfeld et al., 1993, Science 262, 1731-1734). The lysate was precleaned by incubation with Affi-Gel 10 Gel to eliminate non-specific binding. Precleaned lysate was incubated with affinity beads overnight. Proteins were eluted from the affinity beads and separated on SDS-PAGE. Protein bands of interest were excised. Gel plugs were dehydrated in acetonitrile (ACN) and dried completely in a Speedvac. Samples were reduced and alkylated with 10 mM dithiotreitol and 10 mM TCEP solution in 50 mM NH4HCO3 (30 min at 56° C.) and 100 mM iodoacetamide (45 min in dark), respectively. Gel plugs were washed with 50 mM NH4HCO3, dehydrated with ACN, and dried down in a Speedvac. Gel pieces were then swollen in digestion buffer containing 50 mM NH4HCO3, and 20.0 ng/μL of chymotrypsin (25° C., overnight). Peptides were extracted with 0.1% TFA in 50% ACN solution, dried down and resuspended in LC buffer A (0.1% formic acid, 2% ACN).
Extracted peptides were analyzed by nano-flow LC/MS/MS on a Thermo Orbitrap with dedicated Eksigent nanopump using a reversed phase column (New Objective). The flow rate was 200 nL/min for separation: mobile phase A contained 0.1% formic acid, 2% ACN in water, and mobile phase B contained 0.1% formic acid, 20% water in ACN. The gradient used for analyses was linear from 5% B to 50% B over 60 min, then to 95% B over 15 min, and finally keeping constant 95% B for 10 min. Spectra were acquired in data-dependent mode with dynamic exclusion where the instrument selects the top six most abundant ions in the parent spectra for fragmentation. […]

NCX1hMO injected embryos = assay: Restoration of coordinated cardiac contractions in NCX1h morpholino embryos; assay type: in vivo, zebrafish; details: linker-attached compounds
Method: (§3) VDAC2 mRNA and morpholino antisense oligos (5′-[…]-3′) (Genetools) (SEQ ID NO: 9) were injected into one-cell stage embryos collected from crosses of tre^tc318 heterozygotes. Cardiac performance was analyzed by visual inspection on 1 dpf. The tre mutant embryos were identified either by observing the fibrillation phenotype at 2-3 dpf or by genotyping as previously described (Langenbacher et al., 2005).
(§4) Chemicals from a synthetic library (Castellano et al., 2007, J Am Chem Soc 129, 5843-5845; Choi et al., 2011, Development 138, 1173-1181; Cruz et al., 2011, Proc Natl Acad Sci USA 108, 6769-6774) and from Biomol International LP were screened for their ability to partially or completely restore persistent heartbeat in tre embryos. 12 embryos collected from crosses of tre^tc318 heterozygotes were raised in the presence of individual compounds at a concentration of 10 μM from 4 hpf (Choi et al., 2011). Cardiac function was analyzed by visual inspection at 1 and 2 dpf. The hearts of tre^tc318 embryos manifest a chaotic movement resembling cardiac fibrillation with intermittent contractions in rare occasion (Ebert et al., 2005; Langenbacher et al., 2005). Compounds that elicit persistent coordinated cardiac contractions were validated on large number of tre mutant embryos and NCX1h morphants (>500 embryos).

[3] = system: zebrafish tremblor (tre) embryos; assay: Restoration of coordinated cardiac contractions in tre embryos; assay type: in vivo; details: tremblor embryos
Method: as §3, §4

[4] = system: Zebrafish tremblor mutant; assay: Zebrafish screening: soaking; assay type: in vivo; details: for Soaking: % Rescued: Table 1, tremblor mutants, 20 μM; for Rescue percent: Table 2, tremblor mutant soaked in 20 μM test compounds
Method: as §1
Zebrafish tremblor mutant eggs were collected after fertilization, and arrayed in 24-well plates (20 twenty embryos/well) in 500 μL buffer. After 24 hour fertilization in 29° C., 20 μM testing compound was added and using E3 buffer as background control. After 48 hour fertilization in 29° C., phenotypic changes were observed using a high magnification dissecting microscope.

[5] = Defibrillator activity of efsevin enantiomers
[6] = Table 4, injection into tremblor mutants

SMILES	Injection with Morpholino: % Rescued [1]	Rescue percent [1] [%]	Injection into tremblor Mutants: % Rescued [2]	Screen 1 Rescue percent [2, 6] [%]	Average rescue ratio [2] [%]	further results
CCOC(=O)C1=CCN(S(=O)(=O)c2ccccc2Br)C1c1ccc(Cl)cc1 (stereo not drawn) [F7-I-G09]	6/67%	67	23/87%	78	78	–
CCOC(=O)C1=CCN(S(=O)(=O)c2ccc(F)cc2)C1c1ccc(F)cc1 (racemic) [F7-II-A01]	8/38%	38	27/74%	74	74	–
CCOC(=O)C1=CCN(S(=O)(=O)c2ccccc2F)C1c1ccc(Cl)cc1 (stereo not drawn) [F7-I-H01]	8/63%	63	12/83%	83	83	–
CCOC(=O)C1=CCN(S(=O)(=O)c2ccc(Cl)cc2)C1c1ccccc1 (racemic) [F7-II-A11]	6/0%	0	30/73%	73	73	–
CCOC(=O)C1=CCN(S(=O)(=O)c2ccc(F)cc2)C1c1ccc(Cl)c(Cl)c1 (stereo not drawn) [F7-I-F05]	14/50%	50	10/80%	80	80	–
CCOC(=O)C1=CCN(S(C)(=O)=O)C1c1ccccc1 (racemic) [OK-C19]	–	–	–	–	–	pull down of the 32 kD band (VDAC2) (VDAC2): not detected; restoration of rhythmic contractions in NCX1hMO injected embryos (NCX1hMO injected embryos): unable to induce rhythmic contraction; restoration of rhythmic contractions in tremblor embryos [3]: failed to rescue the tremblor phenotype
CCOC(=O)C1=CCN(S(=O)(=O)c2ccc(C)cc2)C1c1ccc(C(=O)OCC)cc1 (racemic) [F7-I-A06]	–	–	–	–	–	Soaking: % Rescued [4]: 17/88%; Rescue percent [4]: 88%
CCOC(=O)C1=CCN(S(=O)(=O)c2ccccc2F)C1c1ccc(C)cc1 (stereo not drawn) [Formula Io]	8/75%	–	–	–	–	–
CCOC(=O)C1=CCN(S(=O)(=O)c2ccc(C)cc2)C1c1cccc(C)c1 (racemic) [F7-I-B12]	–	–	–	–	–	Soaking: % Rescued [4]: 19/78%; Rescue percent [4]: 78%
CCOC(=O)C1=CCN(S(=O)(=O)c2ccc(F)cc2)C1c1ccccc1 (racemic) [F7-II-B01]	6/67%	67	21/81%	91	81	Screen 2 Rescue percent [2, 6]: 79%
CCOC(=O)C1=CCN(S(=O)(=O)c2ccc(Cl)cc2)C1c1ccc(Cl)cc1 (stereo not drawn) [F7-I-B07]	–	–	–	–	–	Soaking: % Rescued [4]: 18/80%; Rescue percent [4]: 80%
CCOC(=O)C1=CCN(S(=O)(=O)c2ccccc2C)C1c1ccc(F)cc1 (racemic) [F7-I-G04]	8/75%	75	26/85%	78	85	Screen 2 Rescue percent [2, 6]: 88%
CCOC(=O)C1=CCN(S(=O)(=O)c2cccc(Cl)c2)C1c1cccc(Cl)c1 (stereo not drawn) [F7-I-F11]	8/88%	88	28/79%	80	79	Screen 2 Rescue percent [2, 6]: 78%
CCOC(=O)C1=CCN(S(=O)(=O)c2ccccc2F)C1c1ccc(Br)cc1 (racemic) [Formula Im]	8/88%	–	–	–	–	–
CCOC(=O)C1=CCN(S(=O)(=O)c2ccc(F)cc2)C1c1cccc(C)c1 (stereo not drawn) [F7-I-F09]	8/75%	75	15/87%	87	87	–
Cc1ccc(S(=O)(=O)N2CC=C(C(=O)O)C2c2ccccc2)cc1 (stereo not drawn) [F7 acid]	–	–	–	–	–	Rescue percent [4]: 21%
CCOC(=O)C1=CCN(S(=O)(=O)c2cccc(F)c2)C1c1ccc(F)cc1 (stereo not drawn) [F7-II-B12]	–	–	21/76%	76	76	–
CCOC(=O)C1=CCN(S(=O)(=O)c2ccccc2F)C1c1ccc(F)cc1 (stereo not drawn) [Formula In]	8/88%	–	–	–	–	–
CCOC(=O)C1=CCN(S(=O)(=O)c2ccc(Cl)cc2)C1c1ccc(Br)cc1 (racemic) [F7-I-H05]	8/88%	88	43/74%	86	74	Screen 2 Rescue percent [2, 6]: 69%; Screen 3 Rescue percent [2, 6]: 75%
CCOC(=O)C1=CCN(S(=O)(=O)c2cccc(F)c2)C1c1ccc(F)cc1 (racemic) [OK-C125]	–	–	–	–	–	pull down of the 32 kD band (VDAC2) (VDAC2): pulled down; restoration of rhythmic contractions in NCX1hMO injected embryos (NCX1hMO injected embryos): retained their ability to restore rhythmic contractions; restoration of rhythmic contractions in tremblor embryos [3]: restored rhythmic contractions in the majority of tremblor embryos
CCOC(=O)C1=CCN(S(=O)(=O)c2ccc(C)cc2)[C@@H]1c1ccccc1 [(R)-Efsevin]	–	–	–	–	–	defibrillator activity of efsevin: active enantiomer [5]: Active Antipode
CCOC(=O)C1=CCN(S(=O)(=O)c2ccc(C)cc2)C1c1ccc(F)cc1 (stereo not drawn) [F7-I-B04]	–	–	–	–	–	Soaking: % Rescued [4]: 8/75%; Rescue percent [4]: 75%
CCOC(=O)C1=CCN(S(=O)(=O)c2ccc(C)cc2)C1c1ccccc1 (racemic) [F7]	–	–	–	–	–	Rescue percent [4]: 72%
